The test system of series [1] is P. falciparum CQ-resistant strain W2. Nature of the series: In vitro antiplasmodial activity, SYBR Green I fluorescence-based method, W2 strain. Type of series: cell-based, Plasmodium falciparum. As to conditions: Plasmodium falciparum; chloroquine-resistant strain W2, 48 h incubation; read-out: P. falciparum strains IC50 values, W2.
For series [2], the system named is human telomeric quadruplex F21T. The experiment in a line: FRET melting experiments, F21T. The series is classed as binding. As to conditions: compound at 5 μM, 200 nM oligonucleotide, K+ condition; result in words. As to the method: (§1) FRET melting experiments were performed with dual-labeled oligonucleotides mimicking the Plasmodium telomeric sequences FPf1T [FAM-^5′(GGGTTTA)3-GGG^3′-TAMRA] and FPf8T [FAM-^5′(GGGTTCA)3GGG^3′-TAMRA] and the human telomeric sequence F21T [FAM-(GGGTTA)3-GGG^3′- TAMRA][36]^,[43]. The oligonucleotides were prefolded in 10 mM lithium cacodylate buffer (pH 7.2), with 10 mM KCl and 90 mM LiCl (K^+ condition). […] The data obtained were normalized between 0 and 1, and the temperature required for half-denaturationof oligonucleotides corresponded to the emission value of 0.5 was calculated as ΔTm. Each experiment was performed in duplicate with 200 nM of labeled oligonucleotide and 0, 1, 2, or 5 μM of compound under K^+ condition. For each compound, two independent experiments were carried out. The data were plotted using OriginPro 9.1 software (OriginLab Corporation, Northampton, MA).

In series [3] the test system is Plasmodium telomeric quadruplex FPf8T. Nature of the series: FRET melting experiments, FPf8T. The series is classed as binding, Plasmodium falciparum. As to conditions: compound at 5 μM, 200 nM oligonucleotide, K+ condition; result in words. Here is the method:
as §1

Series [4] relates to Plasmodium telomeric quadruplex FPf1T. Nature of the series: FRET melting experiments, FPf1T. As to conditions: compound at 5 μM, 200 nM oligonucleotide, K+ condition; result in words. Type of series: binding, Plasmodium falciparum. As to the method:
as §1

The subject of series [5] is P. falciparum CQ-sensitive strain 3D7. The experiment in a line: In vitro antiplasmodial activity, SYBR Green I fluorescence-based method, 3D7 strain. Type of series: cell-based, Plasmodium falciparum. As to conditions: Plasmodium falciparum, 3D7, 48 h, chloroquine-sensitive strain 3D7, 48 h incubation; read-out: P. falciparum strains IC50 values, 3D7.
A further series concerns HepG2 cell line. Nature of the series: Cytotoxicity evaluation, MTT assay. As to conditions: HepG2, 72 h incubation, mean ± SD of three independent experiments. Type of series: cell-based, human. In outline: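 Duplicate wells; after compound exposure, MTT (0.5 mg/mL in FCS-free medium) added and formazan dissolved in DMSO, absorbance at 570 nm (630 nm reference). Viability expressed as percent of untreated cells; CC50 taken from the dose-response curve.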

The subject of series [6] is L. donovani (MHOM/IN/00/DEVI) promastigotes. The experiment in a line: In vitro antileishmanial activity on promastigotes, MTT assay. Type of series: cell-based. The settings on record: Leishmania donovani, 72 h incubation, mean ± SD of three independent experiments.

Take `OC(c1cc(C(F)(F)F)nc2c(C(F)(F)F)cccc12)C1CCCCN1` (stereo not shown) [Mefloquine, reference compound]: the IC50 in series [1] turned out to be 0.032 ± 0.001 µM; in series [5], 0.08 ± 0.008 µM. In series [2], the “Thermal stabilization (ΔTm) on F21T” value was “very slight stabilization”. Besides, the “Thermal stabilization (ΔTm) on FPf8T” value in series [3] was “very slight stabilization”. In addition, in series [4], the “Thermal stabilization (ΔTm) on FPf1T” value is on record as “very slight stabilization”.
`N=C(N)c1ccc(OCCCCCOc2ccc(C(=N)N)cc2)cc1` [Pentamidine, reference compound]: in the series on HepG2 cell line, half-maximal cytotoxicity (CC50) was put at 2.3 ± 0.5 µM. This molecule also registered an IC50 in series [6] of 5.5 ± 0.8 µM.
